We go through five compounds from ChEMBL document CHEMBL1201862, “PubChem BioAssay data set” (2004).

Some test systems named below: HCC 2998; HL-60; SK-MEL-28; SK-MEL-5; SR; NCI-H23; KM12; SW-620; OVCAR-4; SNB-75; UACC-62; NCI-H226; ACHN; LXFL 529; SK-MEL-2; SF-295.
Common to all, as to experiment: DTP human tumour cell line panel, 48 h

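Assay format: 96-well plates, 48-hour exposure. GI50: concentration for 50% inhibition of growth.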 The source made the active and inactive calls. Cut-off read from the data, not from the text of the source: active = GI50 up to about 1.1 µM and inactive = higher.

As a reminder, the GI50 is the concentration at which growth is held to half of that of the control.

Regarding `Oc1ccc(C2Oc3cc(O)cc4c3C2c2cc(O)cc3c2C(c2cc(O)cc5c2C4C(c2ccc(O)cc2)O5)C(c2ccc(O)cc2)O3)cc1` (configuration not stated), the GI50 in the test with HCC 2998 is 8.15 µM (inactive); in the test with HL-60, 0.834 µM (active); in the test on SK-MEL-28 it was 5.28 µM (inactive); with SK-MEL-5 it was 10.9 µM (inactive); with SR, 6.35 µM (inactive); with NCI-H23, 6.11 µM (inactive). For the same compound, the GI50 in the test with KM12 was 7.4 µM (inactive); in the test with SW-620 it was 7.73 µM (inactive); in the test on OVCAR-4, 4.4 µM (inactive); with SNB-75, 3.19 µM (inactive); in the test on UACC-62, > 25 µM (inactive); in the test with NCI-H226, 6.19 µM (inactive). Also, the GI50 in the test with ACHN is > 25 µM (inactive); in the test with LXFL 529, 5.41 µM (inactive); in the test with SK-MEL-2, 5.51 µM (inactive).
`CCOC(=O)/C=C1\Nc2ccccc2C(c2ccccc2)=NC1OC(C)=O` (configuration not stated): the GI50 in the test on HCC 2998 was > 100 µM (inactive); with HL-60 it was 81.5 µM (inactive); in the test with SK-MEL-28 it was > 100 µM (inactive); with SK-MEL-5, > 100 µM (inactive); in the test on SR it was 99.1 µM (inactive); with NCI-H23, > 100 µM (inactive). The GI50 in the test with SF-295 was > 100 µM (inactive); with KM12, > 100 µM (inactive); in the test with SW-620, > 100 µM (inactive); in the test on OVCAR-4 it was > 100 µM (inactive); with SNB-75, 31.9 µM (inactive); in the test on UACC-62, 79.6 µM (inactive). Also, the GI50 with ACHN, in the test on LXFL 529 and in the test on SK-MEL-2 was > 100 µM (inactive) throughout.
In the case of `COc1ccc(-c2cc3[nH]nc(N)c3c(=O)o2)cc1`, the GI50 was > 100 µM (inactive) in the test with HCC 2998; 90.4 µM (inactive) in the test with HL-60; > 100 µM (inactive) with SK-MEL-28; > 100 µM (inactive) in the test with SK-MEL-5; > 100 µM (inactive) in the test with SR; > 100 µM (inactive) in the test with NCI-H23. The GI50 with SF-295 is > 100 µM (inactive); in the test with KM12, > 100 µM (inactive); in the test with SW-620, > 100 µM (inactive); with OVCAR-4, > 100 µM (inactive); with SNB-75 it was 97.3 µM (inactive); with ACHN it was > 100 µM (inactive). For the same compound, the GI50 in the test on LXFL 529 and in the test with SK-MEL-2 was > 100 µM (inactive) throughout.
Consider `COC(=O)C(Cc1cc(OC)c(OC)c(OC)c1)C(=O)OC`, for which the GI50 in the test on HCC 2998, with HL-60, with SK-MEL-28, with SK-MEL-5, with SR and in the test with NCI-H23 was > 320 µM (inactive) throughout. Further, the GI50 in the test with SF-295, in the test with KM12, in the test on SW-620, in the test on UACC-62, in the test on ACHN and with LXFL 529 was > 320 µM (inactive) throughout. Besides, in the test on SK-MEL-2, the GI50 was > 320 µM (inactive).
On to `Cc1cc(Cl)ccc1NC(=O)CC1SC(NC(=O)c2ccccc2Cl)=NC1=O` (configuration not stated), for which the GI50 was 59.4 µM (inactive) in the test on HCC 2998; 2.19 µM (inactive) with HL-60; 22 µM (inactive) in the test on SK-MEL-28; 30.8 µM (inactive) with SK-MEL-5; 15.3 µM (inactive) in the test on SR; 50.2 µM (inactive) with NCI-H23. Further, the GI50 in the test with SF-295 is > 100 µM (inactive); with SW-620, 18 µM (inactive); in the test with OVCAR-4 it was 20.9 µM (inactive); in the test with SNB-75, 19.2 µM (inactive); in the test with UACC-62 it was 27.1 µM (inactive); in the test on NCI-H226 it was 25.2 µM (inactive). Also, the GI50 with ACHN was 16.9 µM (inactive); with LXFL 529, 18 µM (inactive); with SK-MEL-2, 26.7 µM (inactive).
